In patent publication US20250296971A1, “GASTRIC INHIBITORY PEPTIDE RECEPTOR LIGANDS” (priority 2021, published 2025):
pIC50: −log10 of the molar value. Read-outs that look alike come from different tables or passages of the source. *1 amine or outer side, *2 acyl side, *3 side chain or, on linkers, in order; H or OH if unused. Where a SMILES comes first, the peptide text is derived from it. Bridges are numbered along the chain shown (N, C = ends). [ ]: non-standard residue; d: D form. The star is where a group is joined. X14 = NC(=O)[C@H](CCCCNC(=O)CN1CCN2CCN3CCN(CC1)CC(=O)[O][In]([O]C(=O)C2)[O]C(=O)C3)NC(=O)CCC(=O)NCCCOCCOCCOCCCN*; X11 = O=C(CN1CCN2CCN3CCN(CC1)CC(=O)[O][In]([O]C(=O)C2)[O]C(=O)C3)NCCCOCCOCCOCCCN*; X13 = O=C(CN1CCN2CCN3CCN(CC1)CC(=O)[O][Lu]([O]C(=O)C2)[O]C(=O)C3)NCCCOCCOCCOCCCN*; DOTA(Lu) = O=C1CN2CCN3CCN(CC(=O)*)CCN(CC2)CC(=O)[O][Lu]([O]1)[O]C(=O)C3; DOTA = O=C(O)CN1CCN(CC(=O)O)CCN(CC(=O)*)CCN(CC(=O)O)CC1; Trp(5-Cl) = N[C@@H](Cc1c[nH]c2ccc(Cl)cc12)C(=O)O; Pyridine(2,6-diCH2) = c1cc(C[*:1])nc(C[*:2])c1; 1Nal = N[C@@H](Cc1cccc2ccccc12)C(=O)O; mXylylene = c1cc(C[*:1])cc(C[*:2])c1; X6 = c1cc(CSCCN[*:2])nc(C[*:1])c1; Hyp = O=C(O)[C@@H]1C[C@@H](O)CN1; Suc = O=C(CCC(=O)[*:2])[*:1]; Ac6c = NC1(C(=O)O)CCCCC1; Api = NC1(C(=O)O)CCNCC1; Thp = NC1(C(=O)O)CCOCC1; Aib = CC(C)(N)C(=O)O

Target: T1, GIPR (CHO-K1-hGIPR cells) (Homo sapiens, UniProt P48546)
T1 construct: host or cells: CHO-K1
T1 sequence (P48546 22-466): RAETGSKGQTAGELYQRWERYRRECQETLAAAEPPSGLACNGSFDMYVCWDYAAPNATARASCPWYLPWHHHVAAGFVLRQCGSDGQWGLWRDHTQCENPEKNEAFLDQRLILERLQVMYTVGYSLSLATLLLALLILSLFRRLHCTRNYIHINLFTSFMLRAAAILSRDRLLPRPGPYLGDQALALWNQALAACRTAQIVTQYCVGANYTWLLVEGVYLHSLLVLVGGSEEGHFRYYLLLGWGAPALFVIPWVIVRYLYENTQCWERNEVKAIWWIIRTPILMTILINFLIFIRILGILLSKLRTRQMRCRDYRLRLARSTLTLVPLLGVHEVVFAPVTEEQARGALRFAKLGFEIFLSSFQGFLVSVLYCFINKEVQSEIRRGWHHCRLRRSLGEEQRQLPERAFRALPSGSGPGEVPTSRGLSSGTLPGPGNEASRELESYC
Assay: FACS binding assay
Details: competition with 20 nM GIP-057, 4° C., 1 hour; for IC50: read-out: pIC50 Category (converted); for pIC50: pIC50 Category
Procedure, shortened: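 Median fluorescence in the APC channel, measured on washed CHO-K1 cells overexpressing human GIPR, was fitted by four-parameter logistic regression against peptide concentration to yield EC50 or IC50 values. Secondary labelling used APC-streptavidin (1 μg/mL, 30 min, ice).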

| SMILES | IC50 [µM] | pIC50 |
| --- | --- | --- |
| CC[C@H](C)[C@@H]1NC(=O)[C@H](CC(C)C)NC(=O)C2(CCOCC2)NC(=O)[C@@H](NC(=O)[C@@H](CC(C)C)NC(=O)[C@H](CCC(=O)O)NC(=O)[C@@H]2C[C@@H](O)CN2C(=O)[C@H](Cc2c[nH]c3ccc(Cl)cc23)NC(=O)[C@H](Cc2c[nH]c3ccccc23)NC(=O)[C@H](CC(=O)O)NC(C)=O)CSCc2cccc(n2)CSC[C@@H](C(N)=O)NC1=O [GIP-180, Ac-Asp-Trp-5Clw-Hyp-Glu-leu-[Cys(2Lut)-Thp-Leu-Ile-Cys]-NH2] (Ac-DW[Trp(5-Cl)][Hyp]E[dL]C[Thp]LIC-NH2; linker 7-11 via Pyridine(2,6-diCH2)) | < 0.01 |  |
| CC[C@H](C)[C@@H]1NC(=O)[C@H](CC(C)C)NC(=O)C2(CCOCC2)NC(=O)[C@@H](NC(=O)[C@@H](CC(C)C)NC(=O)[C@H](CCC(=O)O)NC(=O)[C@@H]2C[C@@H](O)CN2C(=O)[C@H](Cc2c[nH]c3ccc(Cl)cc23)NC(=O)[C@H](Cc2c[nH]c3ccccc23)NC(=O)CCC(=O)O)CSCc2cccc(n2)CSC[C@@H](C(=O)N[C@H](CCCCNC(=O)CN2CCN(CC(=O)O)CCN(CC(=O)O)CCN(CC(=O)O)CC2)C(N)=O)NC1=O [GIP-116, HO-Succinyl-Trp-5Clw-Hyp-Glu-leu-[Cys(2Lut)-Thp-Leu-Ile-Cys]-lys(DOTA)-NH2] (Suc-W[Trp(5-Cl)][Hyp]E[dL]C[Thp]LIC[dK](DOTA)-NH2; linker 6-10 via Pyridine(2,6-diCH2)) | < 0.01 |  |
| CC[C@H](C)[C@@H]1NC(=O)[C@H](CC(C)C)NC(=O)C2(CCN(C(=O)CN3CCN4CCN5CCN(CC3)CC(=O)[O][Lu]([O]C(=O)C5)[O]C(=O)C4)CC2)NC(=O)[C@@H](NC(=O)[C@@H](CC(C)C)NC(=O)[C@H](CCC(=O)O)NC(=O)[C@@H]2C[C@@H](O)CN2C(=O)[C@H](Cc2c[nH]c3ccc(Cl)cc23)NC(=O)[C@H](Cc2c[nH]c3ccccc23)NC(=O)CCC(=O)O)CSCc2cccc(n2)CSCCNC1=O [GIP-171, HO-Succinyl-Trp-5Clw-Hyp-Glu-leu-[Cys(2Lut)-Apc(LuDOTA)-Leu-Ile-AET]] (Suc-W[Trp(5-Cl)][Hyp]E[dL]C[Api](DOTA(Lu))LI; linker 6-C via X6) |  | > 8.00 |
| CC[C@H](C)[C@@H]1NC(=O)[C@H](CC(C)C)NC(=O)C(C)(C)NC(=O)[C@@H](NC(=O)[C@@H](CC(C)C)NC(=O)[C@H](CCC(=O)O)NC(=O)[C@@H]2CCCN2C(=O)[C@H](Cc2c[nH]c3ccc(Cl)cc23)NC(=O)[C@H](Cc2c[nH]c3ccccc23)NC(=O)[C@H](CC(=O)O)NC(=O)CCC(=O)NCCCOCCOCCOCCCNC(=O)CN2CCN3CCN4CCN(CC2)CC(=O)[O][In]([O]C(=O)C3)[O]C(=O)C4)CSCc2cccc(n2)CSCCNC1=O [GIP-154, InDOTA-Ttds-Asp-Trp-5Clw-Pro-Glu-leu-[Cys(2Lut)-Aib-Leu-Ile-AET]] ({X11-Suc}-DW[Trp(5-Cl)]PE[dL]C[Aib]LI; linker 7-C via X6) | < 0.01 |  |
| CC[C@H](C)[C@@H]1NC(=O)[C@H](CC(C)C)NC(=O)C(C)(C)NC(=O)[C@@H](NC(=O)[C@@H](CC(C)C)NC(=O)[C@H](CCC(=O)O)NC(=O)[C@@H]2CCCN2C(=O)[C@H](Cc2c[nH]c3ccc(Cl)cc23)NC(=O)[C@H](Cc2c[nH]c3ccccc23)NC(=O)[C@H](CC(=O)O)NC(=O)CCC(=O)NCCCOCCOCCOCCCNC(=O)CN2CCN3CCN4CCN(CC2)CC(=O)[O][Lu]([O]C(=O)C3)[O]C(=O)C4)CSCc2cccc(n2)CSCCNC1=O [GIP-163, LuDOTA-Ttds-Asp-Trp-5Clw-Pro-Glu-leu-[Cys(2Lut)-Aib-Leu-Ile-AET]] ({X13-Suc}-DW[Trp(5-Cl)]PE[dL]C[Aib]LI; linker 7-C via X6) |  | > 8.00 |
| CC[C@H](C)[C@@H]1NC(=O)[C@H](CC(C)C)NC(=O)C2(CCCCC2)NC(=O)[C@@H](NC(=O)[C@@H](CC(C)C)NC(=O)[C@H](CCC(=O)O)NC(=O)[C@@H]2CCCN2C(=O)[C@H](Cc2cccc3ccccc23)NC(=O)[C@H](Cc2c[nH]c3ccccc23)NC(=O)[C@H](CC(=O)O)NC(C)=O)CSCc2cccc(c2)CSC[C@@H](C(=O)NCCCOCCOCCOCCCNC(=O)CCC(=O)N[C@@H](CCCCNC(=O)CN2CCN3CCN4CCN(CC2)CC(=O)[O][In]([O]C(=O)C3)[O]C(=O)C4)C(N)=O)NC1=O [GIP-166, Ac-Asp-Trp-1Ni-Pro-Glu-leu-[Cys(3MeBn)-Egz-Leu-Ile-Cys]-Ttds-Lys(InDOTA)-NH2] (Ac-DW[1Nal]PE[dL]C[Ac6c]LIC-X14; linker 7-11 via mXylylene) | < 0.01 |  |
